Data reported in publication PMC8466373, “Plant-Derived and Dietary Hydroxybenzoic Acids—A Comprehensive Study of Structural, Anti-/Pro-Oxidant, Lipophilic, Antimicrobial, and Cytotoxic Activity in MDA-MB-231 and MCF-7 Cell Lines” (Nutrients, 2021).
Converted amounts (≈) assume the structure as drawn.

System: not given
Experiment: not given
Conditions: at 25 °C; cited from earlier work

Structure (SMILES)	pKaexp.
O=C(O)c1cccc(O)c1O [2,3-DHB, 2,3-Dihydroxybenzoic acid]	2.91
O=C(O)c1ccc(O)c(O)c1 [3,4-DHB, 3,4-dihydroxybenzoic acid]	4.26

Same assay, conditions: ref 104; cited from earlier work

Structure (SMILES)	pKaexp.
O=C(O)c1cccc(O)c1O [2,3-DHB, 2,3-Dihydroxybenzoic acid]	2.98
O=C(O)c1c(O)cccc1O [2,6-DHB, 2,6-dihydroxybenzoic acid]	1.30
O=C(O)c1ccc(O)c(O)c1 [3,4-DHB, 3,4-dihydroxybenzoic acid]	4.48

Same assay, conditions: ref 105; cited from earlier work

Structure (SMILES)	pKaexp.
O=C(O)c1cccc(O)c1O [2,3-DHB, 2,3-Dihydroxybenzoic acid]	2.56
O=C(O)c1c(O)cccc1O [2,6-DHB, 2,6-dihydroxybenzoic acid]	1.51
O=C(O)c1ccc(O)c(O)c1 [3,4-DHB, 3,4-dihydroxybenzoic acid]	4.16

System: not given
Experiment: not given
Conditions: ref 102; cited from earlier work

Structure (SMILES)	LogPexp.
O=C(O)c1cccc(O)c1O [2,3-DHB, 2,3-Dihydroxybenzoic acid]	1.20 [102]
O=C(O)c1c(O)cccc1O [2,6-DHB, 2,6-dihydroxybenzoic acid]	2.20 [102]
O=C(O)c1ccc(O)c(O)c1 [3,4-DHB, 3,4-dihydroxybenzoic acid]	0.86 [102]

System: not given
Experiment: not given
Conditions: C = 10 μM, CABTS = 7 mM, t = 7 min; read-out: ABTS radical scavenging activity (%); cited from earlier work

Structure (SMILES)	inhibition [%]
O=C(O)c1ccc(O)c(O)c1 [3,4-DHB, 3,4-dihydroxybenzoic acid]	~38

Same assay, conditions: CABTS = 7 mM, t = 6 min, ref 68; read-out: ABTS, IC50; cited from earlier work

Structure (SMILES)	IC50 [µM]
O=C(O)c1ccc(O)c(O)c1 [3,4-DHB, 3,4-dihydroxybenzoic acid]	10.1

Same assay, conditions: CABTS = 7 mM, t = 6 min, ref 73; read-out: ABTS, IC50; cited from earlier work

Structure (SMILES)	IC50 [µM]
O=C(O)c1cccc(O)c1O [2,3-DHB, 2,3-Dihydroxybenzoic acid]	10.7
O=C(O)c1ccc(O)c(O)c1 [3,4-DHB, 3,4-dihydroxybenzoic acid]	20.7

System: not listed separately
Experiment: CUPRAC assay (cupric-reducing antioxidant capacity)
Format: biochemical
Conditions: concentration of 50 μM, methanolic solutions
Procedure: CUPRAC assay was carried out according to the method described in [44]. First, […] of CuCl2 (C = 10 mM; in water) was mixed with […] of ammonium acetate (pH 7; in water) and neocuproine (C = 75 mM; in ethanol). […] The samples were mixed and incubated for 60 min at room temperature (23 °C). The absorbance of the samples was measured with a UV–Vis spectrophotometer at λ = 450 nm against a blank (containing 0.5 mL of methanol instead of the sample). […] R^2 = 0.9919).

Structure (SMILES)	CUPRAC assay: Trolox equivalent [µM]
O=C(O)c1cccc(O)c1O [2,3-DHB, 2,3-Dihydroxybenzoic acid]	60.83
O=C(O)c1ccc(O)c(O)c1 [3,4-DHB, 3,4-dihydroxybenzoic acid]	60.53

System: E. coli, P. aeruginosa, S. aureus, B. subtilis, S. enteritidis, and C. albicans
Experiment: MIC, stated for all tested strains together
Format: cell-based
Conditions: all of the tested strains
Procedure: The following bacterial strains were used in this study: Escherichia coli (PCM 2857), Pseudomonas aeruginosa (PCM 2720), Bacillus subtilis (PCM 2850), Staphylococcus aureus (PCM 2267), Salmonella enteritidis (NCTC 4776), and Candida albicans (PCM 2566-FY). The microbial strains were bought from the Polish Collection of Microorganisms (Wroclaw, Poland) or the American Type Culture Collection. Bacteria (0.1 mL of the reconstituted suspension) were seeded onto sterile Mueller–Hinton agar plates (Biomaxima), to which previously suitable amounts of the tested compounds were added to give the desired concentration.
(§1) The MIC (minimal inhibitory concentration) was determined by serial dilution of the tested compound in an agar medium, to which the appropriate inoculum of microorganisms was then added and incubated. Escherichia coli, Pseudomonas aeruginosa, Staphylococcus aureus, Bacillus subtilis, Salmonella enteritidis, and Candida albicans were grown overnight and then resuspended in physiological saline to an optical density at 600 nm (OD = 600) of 0.60, corresponding to 5.0 × 10^8 CFU/mL. Bacteria (0.1 mL of the reconstituted suspension) were seeded onto sterile Mueller–Hinton agar plates, to which previously suitable amounts of the tested compounds were added to reach the desired concentration. Tested chemicals were dissolved in DMSO solution. Negative controls were agar plates, to which DMSO was added, while positive controls were plates with gentamycin (in the case of bacteria) or flucanozole (in the case of fungi). The plates were incubated at 37 °C for 24 h. The lowest concentration without visible bacterial growth was determined as the MIC.

Structure (SMILES)	MIC [µg/mL]
O=C(O)c1cccc(O)c1O [2,3-DHB, 2,3-Dihydroxybenzoic acid]	5000 (≈ 32.4 mM)
O=C(O)c1ccc(O)c(O)c1 [3,4-DHB, 3,4-dihydroxybenzoic acid]	2000 (≈ 13 mM)

System: MDA-MB-231 cells
Experiment: Cytotoxicity, neutral red (NR) assay
Format: cell-based, human
Conditions: 48 h treatment, neutral red assay
Procedure: (§2) Briefly, MCF-7 cells were cultured in EMEM (Biological Industries, Israel) medium supplemented with 10% fetal calf serum (Gibco). MDA-MB-231 cells were cultured in Leibovitz‘s L15 (Biological Industries, Beit HaEmek, Israel) medium supplemented with 10% fetal calf serum (Gibco). The MCF-7 cells were incubated in a 5% CO2 atmosphere at 37 °C, whereas the MDA-231 cells were incubated in a 100% air atmosphere at 37 °C.
(§3) Cytotoxicity evaluation was conducted to assess the impact of hydroxybenzoic acids on the proliferation of MCF-7 and MDA-MB-231 cells, which was measured via neutral red (NR) assay. In brief, cells were seeded in 96-well microplates (TPP, Switzerland) at a density of 2 × 10^4 cells/well in 100 μL of culture medium. At least three independent experiments in six replicate wells were conducted per concentration. Twenty-four hours after cell seeding, cells were treated with increasing concentrations of hydroxybenzoic acids (0.02–5 mM) for forty-eight hours. After treatment, cells were incubated for 3 h at 37 °C with 100 µL of neutral red solution (stock solution of NR) (Sigma-Aldrich), and then 5 mg/mL of PBS was diluted 1:100 in cell culture medium, incubated for 12 h at 37 °C, and centrifuged to remove any undissolved NR powder. […] After 15 min of gentle shaking, optical density was read at 540 nm with an Infinite M200 plate reader spectrophotometer (Tecan, Austria).

Structure (SMILES)	Cytotoxicity (mM) in Cell Line MDA-MB-231, IC50
O=C(O)c1ccc(O)c(O)c1 [3,4-DHB, 3,4-dihydroxybenzoic acid]	nontoxic

System: MCF-7 cells
Experiment: Cytotoxicity, neutral red (NR) assay
Format: cell-based, human
Conditions: 48 h treatment, neutral red assay
Procedure: as §2, §3

Structure (SMILES)	Cytotoxicity (mM) in Cell Line MCF-7, IC50
O=C(O)c1ccc(O)c(O)c1 [3,4-DHB, 3,4-dihydroxybenzoic acid]	nontoxic

System: Salmonella enteritidis (NCTC 4776)
Experiment: MIC by serial dilution in agar medium
Format: cell-based
Conditions: Salmonella enterica
Procedure: The following bacterial strains were used in this study: Escherichia coli (PCM 2857), Pseudomonas aeruginosa (PCM 2720), Bacillus subtilis (PCM 2850), Staphylococcus aureus (PCM 2267), Salmonella enteritidis (NCTC 4776), and Candida albicans (PCM 2566-FY). The microbial strains were bought from the Polish Collection of Microorganisms (Wroclaw, Poland) or the American Type Culture Collection.
as §1

Structure (SMILES)	MIC [µg/mL]
O=C(O)c1ccc(O)c(O)c1 [3,4-DHB, 3,4-dihydroxybenzoic acid]	2000 (≈ 13 mM)

Same assay, conditions: Salmonella enterica; Salmonella enteritidis; read-out: MIC

Structure (SMILES)	MIC [µg/mL]
O=C(O)c1cccc(O)c1O [2,3-DHB, 2,3-Dihydroxybenzoic acid]	5000 (≈ 32.4 mM)
O=C(O)c1c(O)cccc1O [2,6-DHB, 2,6-dihydroxybenzoic acid]	3000 (≈ 19.5 mM)

System: not listed separately
Experiment: Pro-oxidant activity, Trolox oxidation assay
Format: biochemical
Conditions: after 120 min of incubation, concentrations of 35 μM
Procedure: The pro-oxidant activity was expressed as the rate of Trolox oxidation according to the protocol described in [45]. First, a mixture of 0.5 mL of Trolox (C = 0.4 mM; in water) with 0.5 mL of H2O2 (C = 0.2 mM; in water), 0.5 mL of HRP (C = 0.04 μM; in phosphate buffer; pH = 7), 5 μL of the tested compounds (C = 50 μM; in methanol), and […] of distilled water was prepared as the tested sample. […] The control contained methanol instead of the tested substance.

Structure (SMILES)	degree of Trolox oxidation [%]
O=C(O)c1c(O)cccc1O [2,6-DHB, 2,6-dihydroxybenzoic acid]	9.52
O=C(O)c1ccc(O)c(O)c1 [3,4-DHB, 3,4-dihydroxybenzoic acid]	8.44

System: not listed separately
Experiment: Lipophilicity via RP-HPLC
Format: physicochemical
Conditions: C8 column
Procedure: The analyses were carried out on the following chromatographic columns: RP-18e Purospher STAR (C18), 150 mm × 4.0 mm, 5 µm, (Merck, Darmstadt, Germany); RP-8e Purospher STAR (C8), 150 mm × 4.6 mm, 5 µm, (Merck, Darmstadt, Germany); Zorbax Eclipse XDB-CN (CN), 150 mm × 4.6 mm, 5 µm, (Agilent Technologies, Santa Clara, CA, USA); Nucleosil Phenyl (PHE), 250 mm × 4.6 mm, 7 µm, (Supelco, Bellefonte, PA, USA); and Regis Rexchrom IAM.PC.DD.2 (IAM), 100 mm × 4.6 mm, 10 µm, (Regis Technologies Inc., Morton Grave, IL, USA). The experimental conditions and the calculations were as described in [46].

Structure (SMILES)	log kw	ϕ0
O=C(O)c1cccc(O)c1O [2,3-DHB, 2,3-Dihydroxybenzoic acid]	1.70	0.87
O=C(O)c1c(O)cccc1O [2,6-DHB, 2,6-dihydroxybenzoic acid]	1.17	1.05
O=C(O)c1ccc(O)c(O)c1 [3,4-DHB, 3,4-dihydroxybenzoic acid]	1.00	0.83

Same assay, conditions: C18 column

Structure (SMILES)	log kw	ϕ0
O=C(O)c1cccc(O)c1O [2,3-DHB, 2,3-Dihydroxybenzoic acid]	2.47	0.60
O=C(O)c1c(O)cccc1O [2,6-DHB, 2,6-dihydroxybenzoic acid]	2.99	0.68
O=C(O)c1ccc(O)c(O)c1 [3,4-DHB, 3,4-dihydroxybenzoic acid]	2.32	0.45

Same assay, conditions: CN column

Structure (SMILES)	log kw	ϕ0
O=C(O)c1cccc(O)c1O [2,3-DHB, 2,3-Dihydroxybenzoic acid]	1.59	1.16
O=C(O)c1c(O)cccc1O [2,6-DHB, 2,6-dihydroxybenzoic acid]	1.49	1.08
O=C(O)c1ccc(O)c(O)c1 [3,4-DHB, 3,4-dihydroxybenzoic acid]	1.58	1.08

Same assay, conditions: IAM column

Structure (SMILES)	log kw	ϕ0
O=C(O)c1cccc(O)c1O [2,3-DHB, 2,3-Dihydroxybenzoic acid]	2.17	1.08
O=C(O)c1c(O)cccc1O [2,6-DHB, 2,6-dihydroxybenzoic acid]	1.31	1.14
O=C(O)c1ccc(O)c(O)c1 [3,4-DHB, 3,4-dihydroxybenzoic acid]	0.44	1.13

Same assay, conditions: PHE column

Structure (SMILES)	log kw	ϕ0
O=C(O)c1cccc(O)c1O [2,3-DHB, 2,3-Dihydroxybenzoic acid]	1.25	0.93
O=C(O)c1c(O)cccc1O [2,6-DHB, 2,6-dihydroxybenzoic acid]	0.87	1.05
O=C(O)c1ccc(O)c(O)c1 [3,4-DHB, 3,4-dihydroxybenzoic acid]	1.07	0.50
